Earlier results as cited in patent US20160213782A1, “POLYURETHANES AS ORAL DRUG DELIVERY PLATFORM” (Universiteit Gent, priority 2013, published 2016).
Where a name gives a salt, the structure may show the parent alone.

Settings: for aqueous solubility in 100 ml at 25° C.: in 100 ml water; for drug solubility: as given in legend of FIG. 1

SMILES	aqueous solubility in 100 ml at 25° C. [g]	drug solubility [mg/mL]
Cn1c(=O)c2c(ncn2CC(O)CO)n(C)c1=O (centres unmarked) [Dyph, 7-(2,3-dihydroxypropyl)-theophylline]	33	–
COCCc1ccc(OCC(O)CNC(C)C)cc1 (centres unmarked) [MPT, Metoprolol tartrate]	–	> 1000
Cn1c(=O)c2[nH]cnc2n(C)c1=O [TH, Theophylline]	0.7	10
CC(=O)Nc1ccc(O)cc1 [acetaminophen]	1.4	–
